Laboratory results as given in ChEMBL document CHEMBL1135933, “Synthesis of nitroindole derivatives with high affinity and selectivity for melatoninergic binding sites MT(3)” (J Med Chem, 2002).

Columns and labels:
[1] = biological target: T1, Melatonin receptor type 1B (Homo sapiens, UniProt P49286); assay: Inhibition of 2-[125I]iodomelatonin binding to human Melatonin receptor type 1B expressed in HEK293 cells; assay type: cell-based
T1 sequence (P49286 whole entry): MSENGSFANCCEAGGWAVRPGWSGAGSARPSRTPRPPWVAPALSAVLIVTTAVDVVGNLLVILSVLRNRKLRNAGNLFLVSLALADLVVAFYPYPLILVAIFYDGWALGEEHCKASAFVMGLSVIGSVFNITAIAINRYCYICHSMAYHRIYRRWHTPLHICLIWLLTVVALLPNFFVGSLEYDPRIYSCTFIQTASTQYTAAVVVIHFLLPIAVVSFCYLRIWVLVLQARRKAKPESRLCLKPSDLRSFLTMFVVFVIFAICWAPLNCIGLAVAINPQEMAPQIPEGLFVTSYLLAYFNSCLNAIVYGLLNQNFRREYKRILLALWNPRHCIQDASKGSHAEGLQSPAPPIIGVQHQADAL

[2] = biological target: Melatonin receptor type 1A (Homo sapiens, UniProt P48039); assay: Inhibition of 2-[125I]iodomelatonin binding to human Melatonin receptor type 1A expressed in HEK293 cells; assay type: cell-based
Melatonin receptor type 1A, sequence (P48039 whole entry): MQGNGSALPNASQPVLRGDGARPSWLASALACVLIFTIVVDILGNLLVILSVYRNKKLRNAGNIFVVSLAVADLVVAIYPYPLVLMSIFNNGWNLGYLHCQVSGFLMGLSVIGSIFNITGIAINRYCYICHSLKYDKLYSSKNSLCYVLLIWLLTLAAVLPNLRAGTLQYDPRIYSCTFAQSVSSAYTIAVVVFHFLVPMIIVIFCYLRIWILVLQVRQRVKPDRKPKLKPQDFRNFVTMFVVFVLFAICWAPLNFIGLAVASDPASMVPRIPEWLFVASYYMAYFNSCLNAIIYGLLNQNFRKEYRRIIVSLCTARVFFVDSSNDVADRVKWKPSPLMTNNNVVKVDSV

Homo sapiens [3] = organism: Homo sapiens; assay: Selectivity ratio of binding affinity at MT1 receptor relative to MT3 receptor
Homo sapiens [4] = organism: Homo sapiens; assay: Selectivity ratio of binding affinity at MT2 receptor relative to MT3 receptor

Structure (SMILES)	Ki [1] [nM]	Ki [2] [nM]	Selectivity (Homo sapiens [3])	Selectivity (Homo sapiens [4])
COc1ccc2c(c1)c(CCNC(C)=O)c(I)n2C	0.047	0.08		
COc1ccc2[nH]cc(CCNC(C)=O)c2c1[N+](=O)[O-]	820	1060	964	745
COc1ccc2c(c1)c(CCNC(C)=O)cn2C	3.1	2.6	0.929	1.1
COc1cc2c(CCNC(C)=O)c[nH]c2cc1[N+](=O)[O-]	5.3	14.6		
COc1cc([N+](=O)[O-])c2[nH]cc(CCNC(C)=O)c2c1	29	49		
COc1ccc2[nH]c(I)c(CCNC(C)=O)c2c1[N+](=O)[O-]	23.7	19.2		
COc1ccc2c(c(CCNC(C)=O)cn2C)c1[N+](=O)[O-]	194	8560	27600	625
COc1cc2c(CCNC(C)=O)c(I)[nH]c2cc1[N+](=O)[O-]		0.3		
COc1cc2c(CCNC(C)=O)c(I)n(C)c2cc1[N+](=O)[O-]	0.77	1.1		
COc1ccc2c(c(CCNC(C)=O)c(I)n2C)c1[N+](=O)[O-]	39	1880		
